Experimental data: patent US8486962B2, “Antifungal agents” (F2G Ltd., priority 2005, dated 2013)
In brackets after ≈: the same amount, converted by molar mass.

Tests used:
Format in all cases: cell-based
Aspergillus niger = test: MIC, YAG medium, Aspergillus niger; conditions: Aspergillus niger; YAG medium; read-out: MIC A Niger 1
Description: (§1) Measurement of Minimum Inhibitory Concentrations (MICs)
(§2) Between 1 and 5 mgs of compound were accurately weighed out into a sterile Eppendorf tube. The compound was dissolved in DMSO to give a solution containing 5 mg/ml. Tubes were stored at −20° C. until required.
(§3) On the day of testing thawed solutions were vortex mixed to ensure homogeneity. 30 μl of solution was removed and added to 570 μl of sterile water in a separate sterile Eppendorf. The thoroughly mixed solution was used to prepare a series of doubling dilutions in water, in a deep well plate. Eleven replicate plates were prepared using a Minitrak by aspirating 20 μl from each well into eleven clear polystyrene 96 well plates.
(§4) Spores of Aspergillus spp (Aspergillus fumigatus, Aspergillus terreus, Aspergillus niger and Aspergillus flavus) were harvested from cultures grown on Sabarauds agar for 5 days, and resuspended in PBS/Tween 80 to approx 1×10^7 cfu/ml Other filamentous fungi (Fusarium solani, Scedosporium spp., Trichophyton spp., Absidia corymbifera), were grown on Sabarauds agar for 2-10 days and spores/hyphae resuspended in PBS/Tween to give approx 1×10^7 cfU/ml. Candida species (Candida albicans, Candida glabrata, Candida krusei, Candida parapsilosis and Candida tropicalis) were grown on Sabarauds agar, cells were harvested from the agar using a sterile loop and resuspended in PBS/Tween 80 to approx 1×10^6 cfu/ml. Each organism suspension was diluted in RPMI medium, containing 2% glucose and 0.135M MOPS buffer (pH7.0) to 2×10^4 cfu/ml for Aspergillus spp and other filamentous fungi and 2×10^3 cfu/ml for yeast. 80 μl of an organism suspension was added to each well of the plate containing drug dilutions.
(§5) This produced MIC plates with a drug range 50-0.05 mg/L and organism inocula of 1-2×10^4 cfu/ml for Aspergillus spp and other filamentous fungi and 1-2×10^3 cfu/ml for yeasts. All plates were incubated for 24-48 hrs at 35° C. Growth was assessed by monitoring the optical density at 485 nm for each well. The MIC of a compound is the lowest drug concentration that inhibits growth of an organism by >80% compared with a drug free control. MICs are recorded as mg/L. Other growth media can be used for susceptibility testing, and the activity of the described compounds can also be assessed in a medium comprising, 1% glucose, 1% ammonium chloride and 0.5% yeast extract (YAG medium). To perform MIC tests in this medium, dilutions of compounds are prepared in microtitre plates as described above. Fungal strains to be tested are grown and harvested in an identical manner to that described above, each organism suspension is then diluted in YAG medium to 2×10^4 cfu/ml for Aspergillus spp and other filamentous fungi and 2×10^3 cfu/ml for yeast. 80 μl of an organism suspension was added to each well of the plate containing drug dilutions. This produced MIC plates with a drug range 50-0.05 mg/L and organism inocula of 1-2×10^4 cfu/ml for Aspergillus spp and other filamentous fungi and 1-2×10^3 cfu/ml for yeasts. All plates were incubated for 24 hrs at 35° C. Growth was assessed by monitoring the optical density at 485 nm for each well. The MIC of a compound is the lowest drug concentration that inhibits growth of an organism by >70% compared with a drug free control. MICs are recorded as mg/L. In cases where the MIC of an organism is […]0.05 mg/L the MIC is repeated using a concentration range of 0.5-0.0005 mg/L. MIC tests in YAG medium have more clear-cut endpoints and have slightly lower MICS than those performed in RPMI medium.
(§6) The following organisms were tested: Aspergillus fumigatus AF293 and Aspergillus fumigatus AF210, Aspergillus niger, Aspergillus terreus, Aspergillus favus, Candida albicans, Candida krusei, Candida tropicalis, Candida glabrata, Candida parapsilosis, Trichophyton rubrum, Trichophyton mentagrophytes, Scedosporium prolificans, Scedosporium apiospermum, Absidia corymbifera, Fusarium solani.

Aspergillus terreus = test: MIC, YAG medium, Aspergillus terreus; conditions: Aspergillus terreus; YAG medium; read-out: MIC A Terreus 4
Description: as §1, §2, §3, §4, §5, §6

[1] = tested on: Aspergillus fumigatus AF210; test: MIC, YAG medium, Aspergillus fumigatus AF210; conditions: Aspergillus fumigatus, AF210; YAG medium; read-out: MIC A Fum. 210
Description: as §1, §2, §3, §4, §5, §6

[2] = tested on: Aspergillus fumigatus AF293; test: MIC, YAG medium, Aspergillus fumigatus AF293; conditions: Aspergillus fumigatus, AF293; YAG medium; read-out: MIC A Fum. 293
Description: as §1, §2, §3, §4, §5, §6

Aspergillus flavus = test: MIC, YAG medium, Aspergillus flavus; conditions: Aspergillus flavus; YAG medium; read-out: MIC A Flavus 01
Description: as §1, §2, §3, §4, §5, §6

Row | MIC (Aspergillus niger) | MIC (Aspergillus terreus) | MIC [1] | MIC [2] | MIC (Aspergillus flavus) | SMILES
1 | 0.05 µg/mL (≈ 0.133 µM) | 0.05 µg/mL (≈ 0.133 µM) | > 50 µg/mL | > 50 µg/mL | 0.1 µg/mL (≈ 0.266 µM) | O=C(Nc1ccc(F)cc1)C(=O)c1c(-c2ccc(F)cc2)cc2ccccn12 [Example 209, N-(4-Fluoro-phenyl)-2-[2-(4-fluoro-phenyl)-indolizin-3-yl]-2-oxo-acetamide]
2 | 0.05 µg/mL (≈ 0.127 µM) | 0.05 µg/mL (≈ 0.127 µM) | > 50 µg/mL | > 50 µg/mL | 0.05 µg/mL (≈ 0.127 µM) | O=C(Nc1ccc(Cl)cc1)C(=O)c1c(-c2ccc(F)cc2)cc2ccccn12 [Example 210, N-(4-Chloro-phenyl)-2-[2-(4-fluoro-phenyl)-indolizin-3-yl]-2-oxo-acetamide]
3 | 1.6 µg/mL (≈ 4.45 µM) | 0.2 µg/mL (≈ 0.557 µM) | 6.25 µg/mL (≈ 17.4 µM) | 6.25 µg/mL (≈ 17.4 µM) | 0.4 µg/mL (≈ 1.11 µM) | O=C(Nc1ccccc1F)C(=O)c1c(-c2cccnc2)cc2ccccn12 [Example 211, N-(2-Fluoro-phenyl)-2-oxo-2-(2-pyridin-3-yl-indolizin-3-yl)-acetamide]
4 | 1.6 µg/mL (≈ 4.5 µM) | 0.8 µg/mL (≈ 2.25 µM) | 6.25 µg/mL (≈ 17.6 µM) | 6.25 µg/mL (≈ 17.6 µM) | 0.4 µg/mL (≈ 1.13 µM) | Cc1ccccc1NC(=O)C(=O)c1c(-c2cccnc2)cc2ccccn12 [Example 213, 2-Oxo-2-(2-pyridin-3-yl-indolizin-3-yl)-N-o-tolyl-acetamide]
5 | 0.4 µg/mL (≈ 0.952 µM) | 0.1 µg/mL (≈ 0.238 µM) | 0.8 µg/mL (≈ 1.9 µM) | 0.8 µg/mL (≈ 1.9 µM) | 0.1 µg/mL (≈ 0.238 µM) | O=C(Nc1ccc(Br)cc1)C(=O)c1c(-c2cccnc2)cc2ccccn12 [Example 214, N-(4-Bromo-phenyl)-2-oxo-2-(2-pyridin-3-yl-indolizin-3-yl)-acetamide]
6 | 0.4 µg/mL (≈ 1.13 µM) | 0.05 µg/mL (≈ 0.141 µM) | 0.4 µg/mL (≈ 1.13 µM) | 0.8 µg/mL (≈ 2.25 µM) | 0.05 µg/mL (≈ 0.141 µM) | Cc1cccc(NC(=O)C(=O)c2c(-c3cccnc3)cc3ccccn23)c1 [Example 215, 2-Oxo-2-(2-pyridin-3-yl-indolizin-3-yl)-N-m-tolyl-acetamide]
7 | 0.4 µg/mL (≈ 1.06 µM) | 0.2 µg/mL (≈ 0.532 µM) | 6.25 µg/mL (≈ 16.6 µM) | 6.25 µg/mL (≈ 16.6 µM) | 0.2 µg/mL (≈ 0.532 µM) | O=C(Nc1ccccc1Cl)C(=O)c1c(-c2cccnc2)cc2ccccn12 [Example 216, N-(2-Chloro-phenyl)-2-oxo-2-(2-pyridin-3-yl-indolizin-3-yl)-acetamide]
8 | > 50 µg/mL | 3.1 µg/mL (≈ 8.09 µM) | > 50 µg/mL | > 50 µg/mL | 0.8 µg/mL (≈ 2.09 µM) | CC(=O)c1ccc(NC(=O)C(=O)c2c(-c3cccnc3)cc3ccccn23)cc1 [Example 217, N-(4-Acetyl-phenyl)-2-oxo-2-(2-pyridin-3-yl-indolizin-3-yl)-acetamide]
9 | 0.4 µg/mL (≈ 1.09 µM) | > 50 µg/mL | > 50 µg/mL | > 50 µg/mL | > 50 µg/mL | O=C(C(=O)N1CCc2ccccc21)c1c(-c2ccccc2)cc2ccccn12 [Example 218, 1-(2,3-Dihydro-indol-1-yl)-2-(2-phenyl-indolizin-3-yl)-ethane-1,2-dione]
10 | 3.1 µg/mL (≈ 7.15 µM) | 6.25 µg/mL (≈ 14.4 µM) | 50 µg/mL (≈ 115 µM) | 12.5 µg/mL (≈ 28.8 µM) | > 50 µg/mL | CS(=O)(=O)Nc1ccc(NC(=O)C(=O)c2c(-c3ccccc3)cc3ccccn23)cc1 [Example 219, N-(4-Methanesulfonylamino-phenyl)-2-oxo-2-(2-phenyl-indolizin-3-yl)-acetamide]
11 | 3.1 µg/mL (≈ 7.2 µM) | 0.4 µg/mL (≈ 0.929 µM) | 1.6 µg/mL (≈ 3.72 µM) | 1.6 µg/mL (≈ 3.72 µM) | 0.05 µg/mL (≈ 0.116 µM) | COc1cc(NC(=O)C(=O)c2c(-c3ccccc3)cc3ccccn23)cc(OC)c1OC [Example 222, 2-Oxo-2-(2-phenyl-indolizin-3-yl)-N-(3,4,5-trimethoxy-phenyl)-acetamide]
12 | 0.2 µg/mL (≈ 0.487 µM) | 0.1 µg/mL (≈ 0.244 µM) | 6.25 µg/mL (≈ 15.2 µM) | 6.25 µg/mL (≈ 15.2 µM) | 0.05 µg/mL (≈ 0.122 µM) | O=C(Nc1ccc(Cl)cc1Cl)C(=O)c1c(-c2cccnc2)cc2ccccn12 [Example 224, N-(2,4-Dichloro-phenyl)-2-oxo-2-(2-pyridin-3-yl-indolizin-3-yl)-acetamide]
13 | 3.1 µg/mL (≈ 7.59 µM) | 0.1 µg/mL (≈ 0.245 µM) | 3.1 µg/mL (≈ 7.59 µM) | 3.1 µg/mL (≈ 7.59 µM) | 0.1 µg/mL (≈ 0.245 µM) | CC(C)(C#N)c1ccc(NC(=O)C(=O)c2c(-c3cccnc3)cc3ccccn23)cc1 [Example 225, N-[4-(Cyano-dimethyl-methyl)-phenyl]-2-oxo-2-(2-pyridin-3-yl-indolizin-3-yl)-acetamide]
14 | > 50 µg/mL | 3.1 µg/mL (≈ 7.19 µM) | > 50 µg/mL | > 50 µg/mL | 1.6 µg/mL (≈ 3.71 µM) | COc1cc(NC(=O)C(=O)c2c(-c3cccnc3)cc3ccccn23)cc(OC)c1OC [Example 226, 2-Oxo-2-(2-pyridin-3-yl-indolizin-3-yl)-N-(3,4,5-trimethoxy-phenyl)-acetamide]
15 | 1.6 µg/mL (≈ 3.9 µM) | 0.05 µg/mL (≈ 0.122 µM) | 0.8 µg/mL (≈ 1.95 µM) | 1.6 µg/mL (≈ 3.9 µM) | 0.05 µg/mL (≈ 0.122 µM) | O=C(Nc1cc(Cl)cc(Cl)c1)C(=O)c1c(-c2cccnc2)cc2ccccn12 [Example 227, N-(3,5-Dichloro-phenyl)-2-oxo-2-(2-pyridin-3-yl-indolizin-3-yl)-acetamide]
16 | 3.1 µg/mL (≈ 8.06 µM) | 0.2 µg/mL (≈ 0.52 µM) | > 50 µg/mL | > 50 µg/mL | 0.1 µg/mL (≈ 0.26 µM) | CN(C)c1ccc(NC(=O)C(=O)c2c(-c3cccnc3)cc3ccccn23)cc1 [Example 230, N-(4-Dimethylamino-phenyl)-2-oxo-2-(2-pyridin-3-yl-indolizin-3-yl)-acetamide]
17 | 0.8 µg/mL (≈ 1.96 µM) | 0.1 µg/mL (≈ 0.245 µM) | 0.8 µg/mL (≈ 1.96 µM) | 1.6 µg/mL (≈ 3.92 µM) | 0.05 µg/mL (≈ 0.122 µM) | CC(C)(C#N)c1cccc(NC(=O)C(=O)c2c(-c3cccnc3)cc3ccccn23)c1 [Example 231, N-[3-(Cyano-dimethyl-methyl)-phenyl]-2-oxo-2-(2-pyridin-3-yl-indolizin-3-yl)-acetamide]
18 | > 50 µg/mL | 1.6 µg/mL (≈ 4.16 µM) | > 50 µg/mL | > 50 µg/mL | > 50 µg/mL | COc1ccc(NC(=O)C(=O)c2c(-c3ccccc3)cc3c(C)cccn23)cc1 [Example 234, N-(4-Methoxy-phenyl)-2-(8-methyl-2-phenyl-indolizin-3-yl)-2-oxo-acetamide]
19 | > 50 µg/mL | 0.05 µg/mL (≈ 0.126 µM) | > 50 µg/mL | > 50 µg/mL | 0.1 µg/mL (≈ 0.253 µM) | COc1ccc(NC(=O)C(=O)c2c(-c3cccc(C#N)c3)cc3ccccn23)cc1 [Example 236, 2-[2-(3-Cyano-phenyl)-indolizin-3-yl]-N-(4-methoxy-phenyl)-2-oxo-acetamide]
20 | 0.8 µg/mL (≈ 2.08 µM) | 0.4 µg/mL (≈ 1.04 µM) | 3.1 µg/mL (≈ 8.06 µM) | 1.6 µg/mL (≈ 4.16 µM) | 1.6 µg/mL (≈ 4.16 µM) | COc1ccc(NC(=O)C(=O)c2c(-c3ccccc3)cc3cccc(C)n23)cc1 [Example 237, N-(4-Methoxy-phenyl)-2-(5-methyl-2-phenyl-indolizin-3-yl)-2-oxo-acetamide]
21 | 0.8 µg/mL (≈ 2 µM) | 0.05 µg/mL (≈ 0.125 µM) | > 50 µg/mL | 50 µg/mL (≈ 125 µM) | 0.05 µg/mL (≈ 0.125 µM) | COc1ccc(NC(=O)C(=O)c2c(-c3ccccc3)cc3ccc(OC)cn23)cc1 [Example 239, N-(4-Methoxy-phenyl)-2-(6-methoxy-2-phenyl-indolizin-3-yl)-2-oxo-acetamide]
22 | > 50 µg/mL | 12.5 µg/mL (≈ 29.2 µM) | > 50 µg/mL | 50 µg/mL (≈ 117 µM) | 12.5 µg/mL (≈ 29.2 µM) | CN(C)CCOc1cccc(NC(=O)C(=O)c2c(-c3ccccc3)cc3ccccn23)c1 [Example 240, N-[3-(2-Dimethylamino-ethoxy)-phenyl]-2-oxo-2-(2-phenyl-indolizin-3-yl)-acetamide]
